Assay type in all cases: biochemical
For experiment [1], the system named is Tyk2, JAK1, JAK2 and JAK3. In words: in vitro assays (Examples A, B, C and D) taken together. The settings on record: Reference Examples; statement in words. The text has this: The assays described in Examples A, B, C and D for the determination of Tyk2, JAK1, JAK2 and JAK3 kinase activity, respectively, utilized the Omnia® Kinase fluorescence peptide substrate-based technology (Invitrogen). The specific components of the assay mixture are described in Examples A, B, C and D. In these assays, Mg^2+ is chelated upon phosphorylation of the Omnia peptide by the kinase to form a bridge between the chelation-enhanced fluorophore Sox and the phosphate, resulting in an increase in fluorescence emission at 485 nm when excited at […]. The reactions were therefore read at excitation 360 nm and emission was measured at 485 nm every 50 seconds for 45 minutes using a PerkinElmer EnVision Multilabel Plate Reader.
The final buffer conditions for Tyk2, JAK1, JAK2, and JAK3 assays were as follows: 25 mM HEPES, pH 7.4, 10 mM MgCl2, 0.01% Triton X-100 and 1 mM DTT.
Compounds were prepared at 50× the final concentration in DMSO by conducting 3-fold serial dilutions from a 500-μM intermediate dilution to give a 10-point dosing curve having a high dose of 10 μM. Two-μL aliquots of these were transferred to a fresh plate for a ten-fold intermediate dilution with assay buffer. Five-μL aliquots of the diluted compounds were then transferred to 20-μL of assay mixtures described in Examples A, B, C and D for a final concentration of DMSO of 2%. A standard or reference compound was typically included on each assay plate to validate that plate. For each plate, percent of control (POC) values were calculated for each well according to the following equation: […]
Compounds of Formula I were screened for their ability to inhibit Tyk2 using the general enzyme inhibition assay method, in which the assay mixture contained 10 μM (Km app) or 1 mM ATP, 8 μM Omnia® Y12 peptide (Catalog #IVGN KPZ3121C; Invitrogen Corporation, Carlsbad, Calif.) and 2 nM Tyk2 in a total volume of 20 μL. Human Tyk2 kinase domain, comprising amino acids 886 to 1187 with 10 additional histidine residues (histidine tag) on the carboxy terminus, was expressed and purified from bacculovirus in-house at Array BioPharma Inc. (Boulder, Colo.). The histidine tag was cleaved after purification using standard conditions.
Compounds of Formula I were screened for their ability to inhibit JAK1 using the general enzyme inhibition assay method, in which the assay mixture contained 40 μM (Km app) or 1 mM ATP, 8 μM Omnia® Y12 peptide (Catalog #IVGN KPZ3121C; Invitrogen Corporation, Carlsbad, Calif.) and 15 nM JAK1 in a total volume of 20 μL. JAK1 was purchased from Invitrogen Corporation, Carlsbad, Calif. (catalog #IVGN PV4775).
Compounds of Formula I were screened for their ability to inhibit JAK2 using the general enzyme inhibition assay method, in which the assay mixture contained 25 μM (Km app) or 1 mM ATP, 10 μM Omnia® Y7 peptide (Catalog #IVGN KNZ3071C, Invitrogen Corporation, Carlsbad, Calif.) and 5 nM JAK2 in a total volume of 20 μL. JAK2 was purchased from Invitrogen Corporation, Carlsbad, Calif. (catalog #IVGN PV4288).
Compounds of Formula I were screened for their ability to inhibit JAK3 using the general enzyme inhibition assay method, in which the assay mixture contained 10 μM (Km app) or 1 mM ATP, 10 μM Omnia® Y7 peptide (Catalog #IVGN KNZ3071C, Invitrogen Corporation, Carlsbad, Calif.) and 2.5 nM JAK3 in a total volume of 20 μL. JAK3 was purchased from Invitrogen Corporation, Carlsbad, Calif. (catalog #IVGN PV4080).

The target in the next experiment is T1, JAK2 (Homo sapiens, UniProt O60674).
T1 construct: purchased Invitrogen Corporation, Carlsbad, Calif; IVGN PV4288
T1 sequence (O60674 whole entry): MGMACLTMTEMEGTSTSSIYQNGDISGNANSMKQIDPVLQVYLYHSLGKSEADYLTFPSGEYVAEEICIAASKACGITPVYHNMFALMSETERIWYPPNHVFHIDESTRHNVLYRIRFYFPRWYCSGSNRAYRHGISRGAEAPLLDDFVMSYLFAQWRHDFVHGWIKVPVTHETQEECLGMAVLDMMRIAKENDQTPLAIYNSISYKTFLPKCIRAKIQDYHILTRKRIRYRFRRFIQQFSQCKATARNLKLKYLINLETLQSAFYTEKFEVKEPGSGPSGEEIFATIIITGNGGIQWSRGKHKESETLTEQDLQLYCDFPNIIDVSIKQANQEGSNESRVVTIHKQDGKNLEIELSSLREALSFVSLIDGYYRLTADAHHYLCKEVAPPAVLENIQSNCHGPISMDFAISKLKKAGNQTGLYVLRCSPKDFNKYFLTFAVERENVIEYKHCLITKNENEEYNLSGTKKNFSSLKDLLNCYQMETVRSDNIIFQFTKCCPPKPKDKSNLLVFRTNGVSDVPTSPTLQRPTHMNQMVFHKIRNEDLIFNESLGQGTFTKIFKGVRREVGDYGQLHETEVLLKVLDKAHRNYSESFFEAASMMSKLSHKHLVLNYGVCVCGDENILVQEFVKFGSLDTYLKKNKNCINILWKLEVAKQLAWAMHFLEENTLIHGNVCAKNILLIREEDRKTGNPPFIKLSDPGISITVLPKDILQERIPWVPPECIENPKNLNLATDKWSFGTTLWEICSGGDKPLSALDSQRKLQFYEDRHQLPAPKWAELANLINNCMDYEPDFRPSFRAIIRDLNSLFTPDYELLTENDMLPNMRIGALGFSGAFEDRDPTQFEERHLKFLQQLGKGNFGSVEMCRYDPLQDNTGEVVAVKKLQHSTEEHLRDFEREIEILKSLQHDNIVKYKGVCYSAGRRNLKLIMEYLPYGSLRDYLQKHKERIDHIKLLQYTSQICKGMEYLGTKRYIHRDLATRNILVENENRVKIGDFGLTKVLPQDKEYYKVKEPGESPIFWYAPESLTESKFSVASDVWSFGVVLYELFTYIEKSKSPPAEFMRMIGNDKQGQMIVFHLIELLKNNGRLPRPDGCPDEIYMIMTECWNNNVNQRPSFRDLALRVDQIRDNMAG
In words: JAK2 Inhibition Assay (Omnia kinase fluorescence peptide substrate). Particulars: averaged IC50 ranges; 25 μM (Km app) or 1 mM ATP, 5 nM JAK2.

Another experiment has as its target T2, Human Tyk2 kinase domain (Homo sapiens, UniProt P29597).
T2 construct: comprising amino acids 886 to 1187; His10 (10 histidine residues) (C, cleaved yes); made in house
T2 sequence (P29597 886-1187): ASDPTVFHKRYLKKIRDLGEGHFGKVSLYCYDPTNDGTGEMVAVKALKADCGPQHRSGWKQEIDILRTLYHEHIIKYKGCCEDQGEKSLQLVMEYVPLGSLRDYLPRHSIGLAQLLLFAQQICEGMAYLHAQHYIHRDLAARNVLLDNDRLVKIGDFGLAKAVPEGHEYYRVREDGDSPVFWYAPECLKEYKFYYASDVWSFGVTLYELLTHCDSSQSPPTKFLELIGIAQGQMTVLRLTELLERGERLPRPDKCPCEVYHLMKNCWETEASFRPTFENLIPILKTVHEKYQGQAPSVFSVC
The experiment can be described thus: Tyk2 Inhibition Assay (Omnia kinase fluorescence peptide substrate). The settings on record: averaged IC50 ranges; 10 μM (Km app) or 1 mM ATP, 2 nM Tyk2. In short, it runs like this:
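Phosphorylation of 8 μM Omnia Y12 peptide followed kinetically by Sox fluorescence, ex 360/em 485 nm, every 50 s for 45 min. Enzyme: 2 nM Tyk2 kinase domain (aa 886–1187, His tag removed); ATP at 10 μM (Km app) or 1 mM; buffer HEPES pH 7.4 with MgCl2, Triton X-100, DTT. 10-point curves up to 10 μM, IC50 from 4-parameter logistic fit.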

The next experiment has as its target T3, JAK3 (Homo sapiens, UniProt P52333).
T3 construct: purchased Invitrogen Corporation, Carlsbad, Calif; IVGN PV4080
T3 sequence (P52333 1-1124): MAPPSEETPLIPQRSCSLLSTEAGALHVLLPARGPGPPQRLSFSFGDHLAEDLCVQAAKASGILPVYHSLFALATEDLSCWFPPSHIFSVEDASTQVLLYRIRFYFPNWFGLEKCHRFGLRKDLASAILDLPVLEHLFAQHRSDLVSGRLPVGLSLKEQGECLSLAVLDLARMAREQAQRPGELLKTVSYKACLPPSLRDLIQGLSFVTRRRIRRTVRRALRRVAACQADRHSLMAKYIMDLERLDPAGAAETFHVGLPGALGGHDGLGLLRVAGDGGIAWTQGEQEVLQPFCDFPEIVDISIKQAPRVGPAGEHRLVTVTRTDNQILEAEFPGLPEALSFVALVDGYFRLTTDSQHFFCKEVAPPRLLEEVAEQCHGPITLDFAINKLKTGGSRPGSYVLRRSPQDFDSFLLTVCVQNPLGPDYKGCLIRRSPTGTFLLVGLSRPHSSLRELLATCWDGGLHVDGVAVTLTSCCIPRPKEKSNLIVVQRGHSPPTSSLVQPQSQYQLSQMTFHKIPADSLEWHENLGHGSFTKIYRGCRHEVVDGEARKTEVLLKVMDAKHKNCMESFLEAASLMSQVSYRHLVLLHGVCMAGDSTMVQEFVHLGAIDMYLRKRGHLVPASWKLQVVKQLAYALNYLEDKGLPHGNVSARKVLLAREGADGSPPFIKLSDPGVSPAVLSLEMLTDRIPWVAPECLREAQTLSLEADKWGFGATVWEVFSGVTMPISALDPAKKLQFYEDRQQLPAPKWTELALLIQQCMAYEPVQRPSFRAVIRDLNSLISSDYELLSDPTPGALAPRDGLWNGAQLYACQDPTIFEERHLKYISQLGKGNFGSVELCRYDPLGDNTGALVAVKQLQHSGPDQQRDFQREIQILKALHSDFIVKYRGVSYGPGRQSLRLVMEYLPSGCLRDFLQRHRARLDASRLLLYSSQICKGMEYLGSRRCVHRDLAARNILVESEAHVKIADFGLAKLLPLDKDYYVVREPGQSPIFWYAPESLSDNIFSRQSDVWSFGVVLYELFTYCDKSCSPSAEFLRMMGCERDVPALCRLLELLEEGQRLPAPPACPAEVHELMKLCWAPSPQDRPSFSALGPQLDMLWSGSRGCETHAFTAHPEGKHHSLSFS
The experiment can be described thus: JAK3 Inhibition Assay (Omnia kinase fluorescence peptide substrate). The settings on record: averaged IC50 ranges; 10 μM (Km app) or 1 mM ATP, 2.5 nM JAK3. Put shortly: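 IC50 is the concentration giving 50 percent of control on a 4-parameter logistic fit of 10-point, 3-fold dilutions from a 10 μM top dose, at 2% final DMSO. Kinetic Sox fluorescence (360/485 nm) was monitored every 50 s for 45 min. Mix: JAK3 2.5 nM, Omnia Y7 peptide 10 μM, ATP 10 μM (Km app) or 1 mM, in HEPES pH 7.4 buffer with MgCl2, Triton X-100 and DTT.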

A further experiment has as its target T4, JAK1 (Homo sapiens, UniProt P23458).
T4 construct: purchased Invitrogen Corporation, Carlsbad, Calif; IVGN PV4775
The experiment can be described thus: JAK1 Inhibition Assay (Omnia kinase fluorescence peptide substrate). Particulars: averaged IC50 ranges; 40 μM (Km app) or 1 mM ATP, 15 nM JAK1. In short, it runs like this:
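15 nM JAK1, 8 μM Omnia Y12 peptide, 40 μM (Km app) or 1 mM ATP; 25 mM HEPES pH 7.4, 10 mM MgCl2, 2% DMSO. Fluorescence (ex 360/em 485 nm) read every 50 s over 45 min. IC50 by 4-parameter fit of percent of control, top dose 10 μM.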

T4 sequence (P23458 whole entry): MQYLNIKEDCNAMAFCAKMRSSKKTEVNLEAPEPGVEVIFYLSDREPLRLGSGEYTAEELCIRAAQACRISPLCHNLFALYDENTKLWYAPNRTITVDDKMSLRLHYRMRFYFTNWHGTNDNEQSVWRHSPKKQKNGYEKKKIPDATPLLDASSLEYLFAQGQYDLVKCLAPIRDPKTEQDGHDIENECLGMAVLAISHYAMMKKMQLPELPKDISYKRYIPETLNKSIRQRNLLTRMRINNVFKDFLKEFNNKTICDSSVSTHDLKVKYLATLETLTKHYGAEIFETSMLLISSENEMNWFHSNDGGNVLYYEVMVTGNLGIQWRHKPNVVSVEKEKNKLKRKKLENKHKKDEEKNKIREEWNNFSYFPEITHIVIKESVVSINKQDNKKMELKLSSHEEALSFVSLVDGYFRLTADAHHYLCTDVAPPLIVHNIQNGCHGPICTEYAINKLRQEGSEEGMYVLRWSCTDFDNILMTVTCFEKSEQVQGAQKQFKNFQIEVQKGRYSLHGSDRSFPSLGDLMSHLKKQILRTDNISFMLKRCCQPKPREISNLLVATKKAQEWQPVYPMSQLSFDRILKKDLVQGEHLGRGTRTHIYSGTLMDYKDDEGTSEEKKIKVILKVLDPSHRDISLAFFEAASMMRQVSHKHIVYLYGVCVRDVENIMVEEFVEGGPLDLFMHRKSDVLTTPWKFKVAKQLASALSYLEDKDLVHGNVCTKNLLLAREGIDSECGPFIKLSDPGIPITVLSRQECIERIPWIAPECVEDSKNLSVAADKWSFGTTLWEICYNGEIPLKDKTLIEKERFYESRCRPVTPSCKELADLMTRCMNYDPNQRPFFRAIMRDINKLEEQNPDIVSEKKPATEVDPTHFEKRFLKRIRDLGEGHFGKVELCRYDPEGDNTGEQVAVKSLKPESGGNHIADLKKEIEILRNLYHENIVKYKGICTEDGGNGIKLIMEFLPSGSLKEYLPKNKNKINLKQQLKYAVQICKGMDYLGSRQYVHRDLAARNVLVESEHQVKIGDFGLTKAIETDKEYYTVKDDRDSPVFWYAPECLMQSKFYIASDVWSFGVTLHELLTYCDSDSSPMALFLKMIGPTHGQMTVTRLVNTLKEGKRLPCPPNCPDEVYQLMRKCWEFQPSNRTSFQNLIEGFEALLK

As usually defined, the IC50 is the concentration that gives 50% inhibition. Consider `COCCC(C1CCOC1)n1cc(-c2nc(-c3cnn(C)c3)cc3nccn23)cn1` (stereo not shown) [Example 75, 5-(1-(3-methoxy-1-(tetrahydrofuran-3-yl)propyl)-1H-pyrazol-4-yl)-7-(1-methyl-1H-pyrazol-4-yl)imidazo[1,2-c]pyrimidine], for which, in experiment [1], the “activity in the in vitro assays” value is on record as “weakly active”. For the same molecule, the IC50 against JAK2, against Human Tyk2 kinase domain, on JAK3 and on JAK1 was greater than 1000 nM in each case.
Take `CCN1CC(CCF)(n2cc(-c3nc(-c4cnn(C)c4)cc4nccn34)cn2)C1` [Example 84, 5-(1-(1-ethyl-3-(2-fluoroethyl)azetidin-3-yl)-1H-pyrazol-4-yl)-7-(1-methyl-1H-pyrazol-4-yl)imidazo[1,2-c]pyrimidine]: the “activity in the in vitro assays” value in experiment [1] is “weakly active”. The IC50 against JAK2, at Human Tyk2 kinase domain, against JAK3 and against JAK1 was greater than 1000 nM throughout.
As to `CCNC(=O)N1CC(CCF)(n2cc(-c3nc(-c4cnn(C)c4)cc4nccn34)cn2)C1` [Example 92, N-ethyl-3-(2-fluoroethyl)-3-(4-(7-(1-methyl-1H-pyrazol-4-yl)imidazo[1,2-c]pyrimidin-5-yl)-1H-pyrazol-1-yl)azetidine-1-carboxamide], in experiment [1], the “activity in the in vitro assays” value is “weakly active”. In addition, the IC50 on JAK2, against Human Tyk2 kinase domain, at JAK3 and against JAK1 was greater than 1000 nM throughout.
On to `CN(C)C(=O)N1CC(CCF)(n2cc(-c3nc(-c4cnn(C)c4)cc4nccn34)cn2)C1` [Example 93, 3-(2-fluoroethyl)-N,N-dimethyl-3-(4-(7-(1-methyl-1H-pyrazol-4-yl)imidazo[1,2-c]pyrimidin-5-yl)-1H-pyrazol-1-yl)azetidine-1-carboxamide], for which, in experiment [1], the “activity in the in vitro assays” value is “weakly active”. The IC50 at JAK2, against Human Tyk2 kinase domain, on JAK3 and against JAK1 was greater than 1000 nM each time.
With `Cn1cc(-c2cc3nccn3c(-c3cnn(C4(CCF)CN(C(=O)C5CC5)C4)c3)n2)cn1` [Example 97, cyclopropyl(3-(2-fluoroethyl)-3-(4-(7-(1-methyl-1H-pyrazol-4-yl)imidazo[1,2-c]pyrimidin-5-yl)-1H-pyrazol-1-yl)azetidin-1-yl)methanone], in experiment [1], the “activity in the in vitro assays” value is given as “weakly active”. Besides, the IC50 on JAK2, at Human Tyk2 kinase domain, against JAK3 and against JAK1 was greater than 1000 nM each time.
On to `COCCC1(n2cc(-c3nc(-c4cnn(C)c4)cc4nccn34)cn2)CN(S(=O)(=O)C(F)(F)F)C1` [Example 100, 5-(1-(3-(2-methoxyethyl)-1-((trifluoromethyl)sulfonyl)azetidin-3-yl)-1H-pyrazol-4-yl)-7-(1-methyl-1H-pyrazol-4-yl)imidazo[1,2-c]pyrimidine], for which the IC50 is 10 to 100 nM against JAK2, less than 10 nM at Human Tyk2 kinase domain, 100 to 1000 nM at JAK3 and 10 to 100 nM on JAK1.
As to `Cn1cc(-c2cc3nccn3c(-c3ccn([C@@H](C[C@@H](O)C(F)(F)F)C4CC4)c3)n2)cn1` [Example 101, (2R,4S)-4-cyclopropyl-1,1,1-trifluoro-4-(3-(7-(1-methyl-1H-pyrazol-4-yl)imidazo[1,2-c]pyrimidin-5-yl)-1H-pyrrol-1-yl)butan-2-ol], the IC50 on JAK2, against Human Tyk2 kinase domain, against JAK3 and against JAK1 was 100 to 1000 nM in each case.
On to `Cn1cc(-c2cc3nccn3c(-c3ccn([C@@H](C[C@H](O)C(F)(F)F)C4CC4)c3)n2)cn1` [Example 102, (2S,4S)-4-cyclopropyl-1,1,1-trifluoro-4-(3-(7-(1-methyl-1H-pyrazol-4-yl)imidazo[1,2-c]pyrimidin-5-yl)-1H-pyrrol-1-yl)butan-2-ol], for which the half-inhibitory concentration (IC50) at JAK2 is 100 to 1000 nM; against Human Tyk2 kinase domain, 10 to 100 nM; on JAK3, greater than 1000 nM; against JAK1 it was 100 to 1000 nM.

The values above are taken from patent publication US20140228349A1, “5,7-SUBSTITUTED-IMIDAZO[1,2-C]PYRIMIDINES” (Array BioPharma Inc., priority 2011, published 2014).
